Consider 1 compound from paper PMC3749867, “Evolutionarily conserved structural changes in phosphatidylinositol 5-phosphate 4-kinase (PI5P4K) isoforms are responsible for differences in enzyme activity and localization” (Biochemical Journal, 2013).

The target in one assay is T1, PI5P4Kβ (Homo sapiens, UniProt P78356).
T1 construct: gene PIP4K2B; full-length cDNA in pGEX6P, E. coli BL21(DE3), GST fusion or GST cleaved by PreScission; mutant PI5P4Kβ+ His-tagged; homodimer
T1 sequence (P78356 1-416): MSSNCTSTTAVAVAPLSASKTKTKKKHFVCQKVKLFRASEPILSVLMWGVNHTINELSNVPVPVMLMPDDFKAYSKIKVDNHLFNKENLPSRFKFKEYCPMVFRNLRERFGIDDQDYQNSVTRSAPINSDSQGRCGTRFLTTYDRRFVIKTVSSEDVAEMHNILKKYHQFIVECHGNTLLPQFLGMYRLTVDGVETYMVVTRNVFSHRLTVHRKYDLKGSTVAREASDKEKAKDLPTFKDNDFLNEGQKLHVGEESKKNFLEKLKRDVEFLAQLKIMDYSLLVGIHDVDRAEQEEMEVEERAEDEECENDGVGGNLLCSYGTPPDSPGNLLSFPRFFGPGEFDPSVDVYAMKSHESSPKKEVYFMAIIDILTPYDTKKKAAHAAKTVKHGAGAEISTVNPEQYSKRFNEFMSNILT
The assay is described as follows: radiometric lipid kinase assay, TLC. In kind it is biochemical. Particulars: read-out: Km (μM ATP); PtdIns5P co-substrate, 10 mM MgCl2, pH 7.4, 30 °C, ATP 0–150 μM. The source says: radiometric lipid kinase assay, TLC on PI5P4Kβ

For the next assay, the target named is T2, PPK-2 (Caenorhabditis elegans, UniProt Q9BL73).
T2 construct: pGEX6P, E. coli BL21(DE3), GST fusion or GST cleaved by PreScission
T2 sequence (Q9BL73 1-401): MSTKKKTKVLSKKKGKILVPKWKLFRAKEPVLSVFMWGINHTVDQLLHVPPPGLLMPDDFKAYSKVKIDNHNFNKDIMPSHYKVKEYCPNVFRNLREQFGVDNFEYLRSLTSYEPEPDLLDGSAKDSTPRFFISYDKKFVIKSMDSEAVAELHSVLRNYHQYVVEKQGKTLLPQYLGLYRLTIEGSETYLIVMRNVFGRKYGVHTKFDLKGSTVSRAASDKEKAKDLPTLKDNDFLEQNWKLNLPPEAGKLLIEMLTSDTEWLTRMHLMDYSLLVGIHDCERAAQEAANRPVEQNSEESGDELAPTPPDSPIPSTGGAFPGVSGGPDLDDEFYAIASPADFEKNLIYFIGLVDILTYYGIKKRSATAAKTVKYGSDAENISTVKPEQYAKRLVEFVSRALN
The assay is described as follows: radiometric lipid kinase assay, TLC. The assay is classed as biochemical. Particulars: PtdIns5P co-substrate, 10 mM MgCl2, pH 7.4, 30 °C; labelled compound.

A further assay concerns the target T3, dPIP4K (Drosophila melanogaster, UniProt A4V141).
T3 construct: gene PIP4K; pGEX6P, E. coli BL21(DE3), GST fusion or GST cleaved by PreScission
T3 sequence (A4V141 1-404): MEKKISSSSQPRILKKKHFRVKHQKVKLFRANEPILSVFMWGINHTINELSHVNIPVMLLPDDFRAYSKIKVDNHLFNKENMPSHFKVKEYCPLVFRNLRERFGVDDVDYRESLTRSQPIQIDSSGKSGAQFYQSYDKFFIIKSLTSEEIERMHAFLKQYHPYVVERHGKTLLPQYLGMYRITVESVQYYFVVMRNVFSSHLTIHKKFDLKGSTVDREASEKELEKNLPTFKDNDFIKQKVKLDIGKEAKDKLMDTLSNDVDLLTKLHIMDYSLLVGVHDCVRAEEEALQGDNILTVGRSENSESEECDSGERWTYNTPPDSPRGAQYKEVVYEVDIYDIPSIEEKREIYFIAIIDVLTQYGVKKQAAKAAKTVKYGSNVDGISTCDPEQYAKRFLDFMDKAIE
The assay is described as follows: radiometric lipid kinase assay, TLC. In kind it is biochemical. Conditions: PtdIns5P co-substrate, 10 mM MgCl2, pH 7.4, 30 °C; labelled compound.

For a further assay, the target named is T4, PI5P4Kγ (Homo sapiens, UniProt Q8TBX8, E153T/N195G/E196V/D197E, form not given).
T4 construct: gene PIP4K2C
T4 sequence (Q8TBX8 2-421 E153T/N195G/E196V/D197E, form open): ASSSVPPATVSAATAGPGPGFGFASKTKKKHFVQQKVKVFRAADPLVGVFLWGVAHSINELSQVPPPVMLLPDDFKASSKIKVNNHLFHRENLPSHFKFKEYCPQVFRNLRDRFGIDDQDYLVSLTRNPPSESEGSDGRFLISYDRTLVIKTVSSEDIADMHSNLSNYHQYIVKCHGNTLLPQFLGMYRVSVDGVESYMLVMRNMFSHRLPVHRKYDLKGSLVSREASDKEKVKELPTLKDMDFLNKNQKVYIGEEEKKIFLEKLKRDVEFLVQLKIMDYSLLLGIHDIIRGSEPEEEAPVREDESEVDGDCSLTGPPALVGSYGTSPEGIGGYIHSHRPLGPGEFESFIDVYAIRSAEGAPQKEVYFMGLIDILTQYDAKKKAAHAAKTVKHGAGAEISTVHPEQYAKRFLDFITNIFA
Particulars: read-out: Km (μM ATP); PtdIns5P co-substrate, 10 mM MgCl2, pH 7.4, 30 °C, ATP 0–150 μM.

Take `Nc1ncnc2c1ncn2[C@@H]1O[C@H](COP(=O)(O)OP(=O)(O)OP(=O)(O)O)[C@@H](O)[C@H]1O` [ATP]: the Km (usually the substrate concentration at which the rate is half of its maximum) stood at 7.58 µM on PI5P4Kβ and 3.96 µM at PI5P4Kγ. For the same compound, the “radiometric lipid kinase assay, TLC” value on PPK-2 is “PPK-2 from C. elegans had a similar specific activity to that of PI5P4Kγ”; at dPIP4K it was “We assayed the PI5P4K activity of recombinant dPIP4K from D. melanogaster”.
